This passage reports inhibition results from ChEMBL document CHEMBL5696441 (Nat Chem Biol, 2011).

The subject of this assay is THP-1. Kind of assay: Inhibition of ERK in human THP-1 cells assessed as CREB phosphorylation at Ser133 level at 4 uM preincubated for 30 mins in the presence of PMA stimulation for 1 hrs by western blot analysis. The class given is cell-based.

SMILES strings stand for the structures. Activity calls are given as the source filed them. The calls are words filed in the database; no cut-off is given here.

With `C[S+]([O-])c1ccc(-c2nc(-c3ccc(F)cc3)c(-c3ccncc3)[nH]2)cc1` (stereo unspecified), the inhibition entry is “Active”.
